Test results published in patent US11396531B2, “Antimicrobial peptides comprising epsilon lysine residues” (priority 2016, dated 2022).
≈ marks a conversion by molar mass, not a printed value. Read-outs that look alike come from different tables or passages of the source.

Assays:
A. baumannii = experiment: microbe, parasite or virus in culture; conditions: A. baumannii (n = 10), Table 5
Description: (§1) MIC of cationic polymers and polypeptide were tested in accordance with the Clinical and Laboratory Standards Institute (CLSI) guidelines against a panel of antibiotic-susceptible/-resistant bacteria, yeasts and fungal strains. Bacterial and yeast strains were cultured on tryptic soy agar (TSA) and Sabaroud dextrose agar (SDA) plates (Neogen Corporation, MI, USA) overnight respectively. Inocula in Mueller-Hinton broth (MHB) for bacteria and SD broth for C. albicans (Beckton Dickinson, MD, USA) were prepared at 0.5 McFarland. The suspensions were then diluted to a final concentration of 10^5 CFU/ml in a 96-well microtitre plate (SPL Life Sciences Co., Ltd, Korea). […] The antimicrobial activities were compared with topical antiseptic agents, BAK and CHX. A similar protocol was used to determine the MIC of εPL against antibiotic-resistant pathogens. MIC of the polymers and polypeptides against Fusarium strains was determined in full strength RPMI-1640 buffer. Fungal spores were recovered from a 5-day old culture on a potato dextrose agar and diluted to a concentration of 10^5 spores/ml in 0.9% saline solution. A further 50-fold dilution was done in RPMI-1640 buffer and 100 μl of the inoculum was added to 96 well plates containing an equal volume of test peptides at 2-fold serial dilutions. 200 μl of inoculum without any additives and buffer alone served as positive and negative controls, respectively. The plate was then incubated at 30° C. for 48 h. The absorbance value was measured at 600 nm as before and the lowest concentration of the peptide which inhibited 90% growth was reported. All MIC determinations were performed in duplicates.
(§2) MICs of polymers/antibiotics were determined using the microdilution method in 96 well microtitre plates (SPL Life Sciences Co., Ltd, Korea), following the guidelines of Clinical and Laboratory Standards Institute (CLSI) document M100-S18. Briefly, polymers (1-512 μg/ml) or antibiotics were dissolved in appropriate media (Mueller Hinton broth, MHB for bacteria; Sabaroud's Dextrose (SD) broth for yeasts and RPMI buffer for Fusarium strains) and 100 μl of this was then mixed with an equal volume of microbial inoculum (OD600=˜0.08) in the same media and shaken in a closed incubator.

[1] = system: Carbapenam-resistant Enterobacter strains (CRE); experiment: microbe, parasite or virus in culture; conditions: CRE (n = 19 strains), Table 5
Description: as §1, §2

E. cloacae complex = experiment: microbe, parasite or virus in culture
Description: as §1, §2

S. aureus or MRSA = type: cell-based, Staphylococcus aureus; conditions: Table 4, range over 5 strains
Description: as §1, with “Korea). Polymers and polypeptides were added to the inoculum in 2-fold serial dilutions to give a range of concentrations from 2-1024 μg/ml.” for “Korea).”
as §2

[2] = Calcein dye leakage from mammalian model LUVs; conditions: peptide:lipid ratio 0.0625
Description: To obtain an insight into the mechanism of membrane discrimination, large unilamellar vesicles (LUVs) which mimic the cytoplasmic membrane of mammalian (PC/Cholesterol) and microbial (PE:PG) cells were used. […] More dramatic results were observed when the experiments were carried out on PC/Cholesterol LUVs.

VRE 1002 = experiment: SYTOX green (SG) uptake assay and bacterial viability; type: cell-based, Enterococcus
Description: To discern the pore-forming ability of modified peptide in comparison with melittin, the SYTOX green (SG) uptake assay was performed upon exposure of the peptides and their bactericidal properties were determined. […] Therefore the fluorescence intensity is taken to be proportional to the degree of cell membrane disruption caused by test peptides.

[3] = system: a number of micro-organisms; conditions: cited from earlier work
red blood cells = conditions: cited from earlier work

CC[C@H](C)[C@H](NC(=O)CN)C(=O)NCC(=O)N[C@@H](C)C(=O)N[C@H](C(=O)N[C@@H](CC(C)C)C(=O)N[C@@H](CCCCN)C(=O)N[C@H](C(=O)N[C@@H](CC(C)C)C(=O)N[C@H](C(=O)N[C@H](C(=O)NCC(=O)N[C@@H](CC(C)C)C(=O)N1CCC[C@H]1C(=O)N[C@@H](C)C(=O)N[C@@H](CC(C)C)C(=O)N[C@H](C(=O)N[C@@H](CO)C(=O)N[C@@H](Cc1c[nH]c2ccccc12)C(=O)N[C@H](C(=O)N[C@@H](CCCCN)C(=O)N[C@@H](CCCNC(=N)N)C(=O)N[C@@H](CCCCN)C(=O)N[C@@H](CCCNC(=N)N)C(=O)N[C@@H](CCC(N)=O)C(=O)N[C@@H](CCC(N)=O)C(N)=O)[C@@H](C)CC)[C@@H](C)CC)[C@@H](C)O)[C@@H](C)O)C(C)C)C(C)C [Melittin]
MIC90 (A. baumannii; 90% of strains susceptible): (MIC90 = 4)^2 μg/ml
MIC (A. baumannii; range): 2 to 4 µg/mL
MIC50 ([1]; 50% of strains susceptible): (MIC50 = 8)^2 μg/ml
MIC ([1]; range): 8 to 32 µg/mL
MIC (E. cloacae complex; E. cloacae complex 6780, Table 5): 8 µg/mL (≈ 2.81 µM)
MIC (E. cloacae complex; E. cloacae complex 44095, Table 5): 8 µg/mL (≈ 2.81 µM)
MIC against S. aureus or MRSA (n = 5) (S. aureus or MRSA): 4 to 8 µg/mL
dye leakage from PC/Cholesterol LUVs [2]: ~70%
SG uptake (VRE 1002; VRE 1002, at 1×MIC): 79.2%
SG uptake (VRE 1002; VRE 1002, at 2×MIC): 89.7%
MIC (range against a number of micro-organisms) ([3]; at 1 - 4 × 10^5 CFU/mL, reference 4): 0.2 - 3 μM at 1 -
MIC (range against a number of micro-organisms) ([3]; at 1 × 10^6 CFU/mL, reference 6): 0.5 - 8 μM at
MIC (range against a number of micro-organisms) ([3]; at 7.5 × 10^5 CFU/mL, reference 8): 3.9 - 31.3 μM at
Haemolytic activity (red blood cells; at 4 μM, reference 4): 100% at 4 μM
Haemolytic activity (red blood cells; at 5 μM, reference 8): 50% at 5 μM
Haemolytic activity (red blood cells; at 10 μM, reference 6): >80% at 10 μM
